Experimental data: ChEMBL document CHEMBL4350985, “1,3-Dioxane as a scaffold for potent and selective 5-HT1AR agonist with in-vivo anxiolytic, anti-depressant and anti-nociceptive activity” (Eur J Med Chem, 2019)
Calls of active or inactive are those of the source. The rule behind the calls is not given here.

Tests used:
SH-SY5Y [1] = test: Cytotoxicity against human SH-SY5Y cells assessed as reduction in cell viability incubated for 24 hrs by MTT assay; assay type: cell-based
SH-SY5Y [2] = test: Neuroprotective activity against H2O2-induced cell death in human SH-SY5Y cells at 1 uM incubated for 24 hrs by MTT assay; assay type: functional
SH-SY5Y [3] = test: Neuroprotective activity against oligomycin A-induced cell death in human SH-SY5Y cells at 1 uM incubated for 24 hrs by MTT assay; assay type: functional
SH-SY5Y [4] = test: Neuroprotective activity against rotenone-induced cell death in human SH-SY5Y cells at 1 uM incubated for 24 hrs by MTT assay; assay type: functional
SH-SY5Y [5] = test: Neuroprotective activity against H2O2-induced cell death in human SH-SY5Y cells at 0.1 uM incubated for 24 hrs by MTT assay; assay type: functional
[6] = Apparent permeability from apical to basolateral side in dog MDCK2-MDR1 cells incubated for 120 mins by UV-visible spectrophotometry; assay type: ADME, cell-based, Canis lupus familiaris; settings: MDCK-MDR1
[7] = Cmax in Sprague-Dawley rat plasma at 10 mg/kg, po measured upto 480 mins by LC/MS-MS analysis; assay type: ADME, organism-based; set-up: dose 10 mg/kg, route oral
[8] = Tmax in Sprague-Dawley rat plasma at 10 mg/kg, po measured upto 480 mins by LC/MS-MS analysis; assay type: ADME, organism-based
[9] = AUC (0 to t) in Sprague-Dawley rat plasma at 10 mg/kg, po measured upto 480 mins by LC/MS-MS analysis; assay type: ADME, organism-based; settings: in vivo, 8 h
[10] = AUC (0 to infinity) in Sprague-Dawley rat plasma at 10 mg/kg, po measured upto 480 mins by LC/MS-MS analysis; assay type: ADME, organism-based; set-up: dose 10 mg/kg, route oral, time infinity; settings: in vivo, 8 h
[11] = Tmax in Sprague-Dawley rat brain at 10 mg/kg, po measured upto 480 mins by LC/MS-MS analysis; assay type: ADME, organism-based
[12] = AUC (0 to infinity) in Sprague-Dawley rat brain at 10 mg/kg, po measured upto 480 mins by LC/MS-MS analysis; assay type: ADME, organism-based; set-up: dose 10 mg/kg, time infinity, route oral; settings: in vivo, 8 h
[13] = Half life in Sprague-Dawley rat brain at 10 mg/kg, po measured after 15 to 45 mins by LC/MS-MS analysis; assay type: ADME, organism-based
[14] = Half life in Sprague-Dawley rat brain at 10 mg/kg, po measured after 45 to 480 mins by LC/MS-MS analysis; assay type: ADME, organism-based
Rattus norvegicus [15] = test: Anxiolytic activity at Sprague-Dawley rat assessed as increase in time spent in open arm at 10 mg/kg, po by EPM test relative to control; assay type: functional
Rattus norvegicus [16] = test: Anxiolytic activity at Sprague-Dawley rat assessed as increase in time spent in open arm at 20 mg/kg, po by EPM test relative to control; assay type: functional
Mus musculus = test: Antinociceptive activity in formalin-induced nociception pain Swiss […] mouse model assessed as perception of II phase of noxious stimulus at 10 mg/kg, ip co-administered with 3 mg/kg, ip 5-HT1AR antagonist WAY-100635 by formalin test; assay type: functional, organism-based

## COc1ccccc1OCCNCC1COC(c2ccccc2)(c2ccccc2)OC1.O=C(O)C(=O)O
SH-SY5Y [1]
  IC50: 31.2 µM
SH-SY5Y [2]
  Activity: 79%
SH-SY5Y [3]
  Activity: 83%
SH-SY5Y [4]
  Activity: 61%
SH-SY5Y [5]
  Activity: 89%
[6]
  Papp A→B at 2 h: 26 ×10⁻⁶ cm/s
[7]
  Cmax: 95 nM
[8]
  Tmax: 30 min
[9]
  AUCt: 17.4 nmol·min/g
[10]
  AUC: 18.1 nmol·min/g
[11]
  Tmax: 60 min
[12]
  AUC: 7173.4 nmol·min/g
[13]
  half-life: 6.2 min
[14]
  half-life: 142 min
Rattus norvegicus [15]
  Activity: 20%
Rattus norvegicus [16]
  Activity: 18%
Mus musculus
  inhibition: inactive
